Test results taken from patent US9186342B2, “Combination of an NSAID and an amino acid” (LABORATORIOS SENOSIAIN S.A. DE C.V., priority 2010, dated 2015).

Tests used:
[1] = in vivo; cited from earlier work
[2] = cited from earlier work
[3] = tested on: pyresis induced by LPS from E. coli in rats; assay: Anti-pyretic effect, pyresis model induced by LPS from E. coli; assay type: in vivo, rat; details: 15 mg/Kg, from the first 60 minutes
Experimental: After the assessment of the anti-nociceptive and anti-inflammatory effects, the anti-pyretic effect was assessed for increasing doses of the combination IBU:L-ARG in a ratio IBU/L-ARG=3.26, in comparison with the administration of an agent that is well known as capable of control fever, such as acetaminophen (15 mg/Kg) (see FIG. 5).

[4] = tested on: inflammation induced with carrageenan in rats; assay: Anti-inflammatory effect, inflammation model by carrageenan; assay type: in vivo, rat; details: 10 mg/Kg, each 8 hours, from the third hour
Experimental: From the results of the previous study, and following a model where inflammation is induced with carrageenan administration for generating a bruise, we determined the anti-inflammatory effect of the L-ARG-IBU combination, in comparison with the administration of a treatment of known effects (positive control: diclofenac 10 mg/Kg), and of a control group, administered each 8 hours for a period of 48 hours. This model presented a maximum inflammation level of towards 6-8 hours, after which inflammation starts to decrease gradually.

## ibuprofen arginate
[1]
  onset of the analgesic action compared to ibuprofen alone: fast onset of the analgesic action

## CC(C)Cc1ccc(C(C)C(=O)O)cc1 (stereo not shown) [Ibuprofen]
[2]
  solubility in water: relatively insoluble in water

## CC(=O)Nc1ccc(O)cc1 [acetaminophen]
[3]
  temperature after drug administration: temperature returned to basal levels

## O=C(O)Cc1ccccc1Nc1c(Cl)cccc1Cl [diclofenac]
[4]
  development of edema: reduced the development of edema
